Values of other authors as cited in patent publication US11903955B2, “Methods of treating heart failure with reduced ejection fraction” (ASTRAZENECA AB, priority 2019, dated 2024).

Tests used:
[1] = system: patients with HFrEF; details: after 8 months of treatment, PARADIGM-HF; cited from earlier work
[2] = system: patients with systolic heart failure; details: after 12 months of treatment, SHIFT; cited from earlier work

| Compound | improvement in KCCQ-CS over enalapril [1] [point] | improvement in KCCQ-OS over enalapril [1] [point] | mean improvement in KCCQ-CSS [2] [point] | mean improvement in KCCQ-OSS [2] [point] |
| --- | --- | --- | --- | --- |
| sacubitril-valsartan | 0.9 | 1.3 | – | – |
| COc1cc2c(cc1OC)CC(=O)N(CCCN(C)C[C@H]1Cc3cc(OC)c(OC)cc31)CC2 [ivabradine] | – | – | 1.8 | 2.4 |
